Measurements as given in ChEMBL document CHEMBL1126448, “Synthesis and biological activity of putative mono-hydroxylated metabolites of velnacrine” (Bioorg Med Chem Lett, 1992).
Activity calls are given as the source filed them. No cut-off for these calls is given here.

Experiments:
[1] = molecular target: T1, Acetylcholinesterase (Rattus norvegicus, UniProt P37136)
T1 sequence (P37136 whole entry): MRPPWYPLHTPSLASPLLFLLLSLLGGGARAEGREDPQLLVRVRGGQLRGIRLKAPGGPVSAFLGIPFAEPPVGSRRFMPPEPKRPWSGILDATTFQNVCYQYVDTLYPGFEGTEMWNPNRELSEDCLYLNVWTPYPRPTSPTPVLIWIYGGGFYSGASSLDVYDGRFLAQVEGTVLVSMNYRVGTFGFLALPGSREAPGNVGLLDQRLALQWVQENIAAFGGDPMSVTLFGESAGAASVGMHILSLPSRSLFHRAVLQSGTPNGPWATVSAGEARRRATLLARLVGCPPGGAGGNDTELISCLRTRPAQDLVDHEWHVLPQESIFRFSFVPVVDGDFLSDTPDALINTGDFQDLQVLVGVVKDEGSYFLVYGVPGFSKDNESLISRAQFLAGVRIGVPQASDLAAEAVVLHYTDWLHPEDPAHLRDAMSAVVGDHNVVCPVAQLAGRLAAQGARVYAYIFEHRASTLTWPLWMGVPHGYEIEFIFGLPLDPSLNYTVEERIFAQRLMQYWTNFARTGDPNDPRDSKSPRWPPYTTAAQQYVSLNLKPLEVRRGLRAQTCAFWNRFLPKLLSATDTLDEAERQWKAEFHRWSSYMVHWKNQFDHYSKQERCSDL
Description: Inhibition of acetylcholinesterase

[2] = tested on: Mus musculus; test: Compound was evaluated for reversal of scopolamine-induced memory impairment in mice when administered subcutaneously; Not active (0.16-5 mg/kg); type: functional
[3] = Acute toxicity in mice when administered subcutaneously; details: mouse, in vivo, sc
[4] = tested on: Mus musculus; test: Compound was evaluated for reversal of scopolamine-induced memory impairment in mice when administered subcutaneously (1-10 mg/kg); type: functional
[5] = tested on: Mus musculus; test: Compound was evaluated for reversal of scopolamine-induced memory impairment in mice when administered subcutaneously (0.31 - 5 mg/kg); type: functional; details: route subcutaneous
[6] = tested on: Mus musculus; test: Compound was evaluated for reversal of scopolamine-induced memory impairment in mice when administered subcutaneously; type: functional
[7] = tested on: Mus musculus; test: Compound was evaluated for reversal of scopolamine-induced memory impairment in mice when administered subcutaneously; Not active (1-10 mg/kg); type: functional

SMILES	IC50 [1] [µM]	LD50 [3] [mg/kg]	also measured
Nc1c2c(nc3ccccc13)CC[C@H](O)[C@@H]2O	> 100	–	–
Nc1c2c(nc3cc(O)ccc13)CCCC2O (centres undefined)	64.4	> 80	Dose [2]: 0.16 mg/kg
Nc1c2c(nc3ccccc13)C[C@H](O)C[C@@H]2O	5.4	> 80	Dose [4]: 1 mg/kg
Nc1c2c(nc3ccccc13)CCCC2O (centres undefined) [VELNACRINE]	1.3	> 80	Dose [5]: 0.31 mg/kg
Nc1c2c(nc3ccccc13)CC[C@H](O)[C@H]2O	> 100	–	–
Nc1c2c(nc3ccccc13)[C@H](O)CC[C@@H]2O	4.6	> 80	Dose [6]: 3 mg/kg
Nc1c2c(nc3c(O)cccc13)CCCC2O (centres undefined)	25.1	> 80	Dose [7]: 1 mg/kg
Nc1c2c(nc3ccccc13)[C@H](O)CC[C@H]2O	62.1	> 80	DOSE [7]: inactive
Nc1c2c(nc3cccc(O)c13)CCCC2O (centres undefined)	27.4	> 80	Dose [7]: 1 mg/kg
Nc1c2c(nc3ccccc13)C[C@H](O)C[C@H]2O	14.7	> 80	Dose [4]: 1 mg/kg
Nc1c2c(nc3ccc(O)cc13)CCCC2O (centres undefined)	10.6	> 80	Dose [2]: 0.16 mg/kg
